Measurements taken from patent US12011444B2, “N-substituted indole derivatives as PGE2 receptor modulators” (Idorsia Pharmaceuticals Ltd, priority 2015, dated 2024).

How the values were obtained:
EP2 = EP2 (Homo sapiens (Human), UniProt P43116);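 further: antagonism of PGE2-stimulated cAMP accumulation in SF295 human glioblastoma cells with endogenous EP2, cAMP read by HTRF, expressed relative to DMSO control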
Description: Human tumor cell lines expressing endogenously either EP4 or EP2 are used and cAMP accumulation in cells upon PGE2 stimulation is monitored. SF295 glioblastoma cells express high endogenous EP2 and no EP4, whereas BT549 breast cancer cells, express high endogenous EP4 levels and very low EP2 levels.
As a detection method for cAMP the HTRF (homogeneous time resolved fluorescence) Cisbio kit (HTRF cAMP dynamic 2 kit 20′000 tests Cisbio Cat. #62AM4PEC) was used, which is based on a competitive immunoassay using a Cryptate-labeled anti-cAMP antibody and d2-labeled cAMP. Native cAMP produced by cells or unlabeled cAMP (for the standard curve) compete with exogenously added d2-labeled cAMP (acceptor) for binding to monoclonal anti-cAMP-Eu3+Cryptate (donor). A FRET signal (Fluorescence Resonance Energy Transfer) is obtained only if the labeled anti-cAMP antibody binds the d2 labelled cAMP, thus the specific signal (i.e. energy transfer) is inversely proportional to the concentration of cAMP in the standard or sample.
The SF295 cells (NCI/No. 0503170) are detached from culture dishes with a cell dissociation buffer (Invitrogen, 13151-014), and collected in growing medium (GM: RPM11640 (Invitrogen 21875)/10% FCS, 1% Penicilin/streptomycin). Cells are counted washed and resuspended in assay buffer (AB; HBSS, 20 mM HEPES, 0.2% BSA; 2 mM IBMX). 4,000 cells in 5 μl of AB are seeded per well of a small volume 384 well plate (black with flat bottom, Greiner 784076).
PGE2 (Cayman 14010, stock solution: 75 μM in DMSO) is used as agonist at 75 nM final concentration, corresponding to EC80.
Two point five microliters of diluted compounds are transferred into the assay plate. Plate is pre-incubated 45 minutes at room temperature. Subsequently, 2.5 microliters of PGE2 (final conc. 75 nM) are transferred into the assay plate. Plate is incubated 30 minutes at room temperature. Five μl of each donor (anti-cAMP cryptate) and acceptor (cAMP-d2) are added and the plate is incubated another hour at room temperature in the dark and then read using a BMG LABTECH PHERAstar reader (Excitation: 337 nm, Emission: 620 and 665 nm).
The obtained Delta F (fluorescence) values (665 nm/620 nM) are converted into % cAMP values using the measurements of the cAMP calibrator provided in the kit. For each compound concentration the percentage of cAMP compared to DMSO control value as average±STDEV (each concentration is measured in duplicate) is calculated.
IC50 values and curves are generated with XLfit software (IDBS) using Dose-Response One Site model 203. When compounds were measured multiple times, mean values are given.

EP4 = EP4 (Homo sapiens (Human), UniProt P35408); test: hEP4 cAMP assay (BT549 breast cancer cells, HTRF cAMP); type: cell-based
Description: Plate is pre-incubated 45 minutes at room temperature. Subsequently, 2.5 microliters of PGE2 (final conc. 6 nM) are transferred into the assay plate. Plate is incubated 30 minutes at room temperature.

[1] = antagonistic activity, mean values where measured multiple times
[2] = (*): measured using the cAMP assay

Sequence of EP4 (P35408 whole entry): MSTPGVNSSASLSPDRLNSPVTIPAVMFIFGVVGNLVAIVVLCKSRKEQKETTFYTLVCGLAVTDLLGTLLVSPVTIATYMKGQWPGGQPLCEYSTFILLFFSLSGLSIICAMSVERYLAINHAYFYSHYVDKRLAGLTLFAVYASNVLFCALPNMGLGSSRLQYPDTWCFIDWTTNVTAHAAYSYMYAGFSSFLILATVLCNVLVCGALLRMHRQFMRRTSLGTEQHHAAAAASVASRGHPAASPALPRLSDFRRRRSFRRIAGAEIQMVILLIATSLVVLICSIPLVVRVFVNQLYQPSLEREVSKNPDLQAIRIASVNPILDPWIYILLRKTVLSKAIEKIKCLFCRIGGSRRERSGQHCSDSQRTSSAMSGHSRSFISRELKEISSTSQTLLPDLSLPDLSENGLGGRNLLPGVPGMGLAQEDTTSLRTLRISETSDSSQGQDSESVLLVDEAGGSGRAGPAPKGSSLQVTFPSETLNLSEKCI
Sequence of EP2 (P43116 whole entry): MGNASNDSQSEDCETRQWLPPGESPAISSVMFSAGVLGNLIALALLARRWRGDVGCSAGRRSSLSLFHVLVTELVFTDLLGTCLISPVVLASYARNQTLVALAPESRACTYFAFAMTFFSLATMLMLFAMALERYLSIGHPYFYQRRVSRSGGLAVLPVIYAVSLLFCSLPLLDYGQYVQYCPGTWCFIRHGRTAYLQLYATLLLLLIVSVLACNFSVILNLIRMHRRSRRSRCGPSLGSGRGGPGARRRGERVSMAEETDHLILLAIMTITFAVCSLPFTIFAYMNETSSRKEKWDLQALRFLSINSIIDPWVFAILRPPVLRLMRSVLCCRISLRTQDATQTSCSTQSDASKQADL

## COc1cc(F)cc2c1cc(C)n2CCNc1cc(-c2ccc(-c3cc(C)[nH]n3)cc2)ncn1 [compound 583]
EP2
  IC50: 0.01 µM
EP4; [1]
  IC50: 0.065 µM

## COc1cc(F)cc2c1cc(C)n2CCNc1cc(-c2ccc(C(=O)O)c(C(C)(C)C)c2)ncn1 [compound 528]
EP2
  IC50: 0.119 µM
EP4; [1]
  IC50: 0.151 µM

## CCOc1cc(-c2cc(NCCn3c(C)cc4c(OC)ccc(Cl)c43)ncn2)ccc1C(=O)O [compound 405]
EP2
  IC50: 0.018 µM
EP4; [1]
  IC50: 0.356 µM

## CCCc1cc(-c2cc(NCCn3c(C)cc4cc(Cl)cc(F)c43)ncn2)cc(F)c1C(=O)O [compound 425]
EP2
  IC50: 0.073 µM
EP4; [1]
  IC50: 0.521 µM

## COc1cccc2c1cc(C)n2CCNc1cc(-c2ccc(C(=O)O)c(Oc3ccc(F)cc3)c2)ncn1 [compound 649]
EP2
  IC50: 0.013 µM
EP4; [1]
  IC50: 0.768 µM

## CCOc1cc(-c2cc(NCCn3c(C)cc4c(C)ccc(F)c43)ncn2)cc(CC)c1C(=O)O [compound 532]
EP2
  IC50: 0.033 µM
EP4; [1]
  IC50: 0.828 µM

## CNS(=O)(=O)c1ccc(-c2cc(NCCn3c(C)cc4c(OC)ccc(F)c43)ncn2)cc1C(F)(F)F [compound 591, 4-{6-[2-(7-Fluoro-4-methoxy-2-methyl-indol-1-yl)-ethylamino]-pyrimidin-4-yl}-N-methyl-2-trifluoromethyl-benzenesulfonamide]
EP2
  IC50: 0.033 µM
EP4; [1]
  IC50: 0.294 µM

## CCOc1cc(-c2cc(NCCn3c(C)cc4c(OC)cc(F)cc43)ncn2)ccc1C(=O)O [compound 403]
EP2
  IC50: 0.02 µM
EP4; [1]
  IC50: 0.128 µM

## CCOc1cc(-c2cc(NCCn3c(C#N)cc4c(OC)ccc(F)c43)ncn2)sc1C(=O)NS(=O)(=O)C1CC1 [Example 816, Cyclopropanesuifonic acid (5-{6-[2-(2-cyano-7-fluoro-4-methoxy-indol-1-yl)-ethylamino]-pyrimidin-4-yl}-3-ethoxy-thiophene-2-carbonyl)-amide]
EP2
  IC50: 0.024 µM
EP4; [2]
  IC50: 0.015 µM

## COc1ccc(F)c2c1cc(C)n2CCNc1cc(-c2ccc(C(=O)O)c(OC(F)(F)F)c2)ncn1 [compound 606]
EP2
  IC50: 0.008 µM
EP4; [1]
  IC50: 0.186 µM

## CCCOc1cc(-c2cc(NCCn3c(C)cc4c(OC)cc(F)c(F)c43)ncn2)cc(Cl)c1C(=O)O [compound 638]
EP2
  IC50: 0.061 µM
EP4; [1]
  IC50: 0.033 µM

## CCOc1cc(-c2cc(NCCn3c(C#N)cc4c(Cl)cc(F)c(F)c43)ncn2)sc1C(=O)O [Example 941, 5-{6-[2-(4-Chloro-2-cyano-6,7-difluoro-indol-1-yl)-ethylamino]-pyrimidin-4-yl}-3-ethoxy-thiophene-2-carboxylic acid]
EP2
  IC50: 0.011 µM
EP4; [2]
  IC50: 0.029 µM

## COc1cc(F)cc2c1cc(C)n2CCNc1cc(-c2cc(Cl)c(C(=O)O)c(OCC(C)C)c2)ncn1 [compound 692]
EP2
  IC50: 0.007 µM
EP4; [1]
  IC50: 0.064 µM

## Cc1ccc(Cl)c2c1cc(C)n2CCNc1cc(-c2ccc(C(=O)O)c(SC3CCC3)c2)ncn1 [compound 452, 4-{6-[2-(7-Chloro-2,4-dimethyl-indol-1-yl)-ethylamino]-pyrimidin-4-yl}-2-cyclobutylsulfanyl-benzoic acid]
EP2
  IC50: 0.034 µM
EP4; [1]
  IC50: 0.468 µM

## COc1ccc(-c2ccc(-c3cc(NCCn4c(C)cc5c(OC)cc(F)cc54)ncn3)cc2)nn1 [Example 756, [2-(6-Fluoro-4-methoxy-2-methyl-indol-1-yl)-ethyl]-{6-[4-(6-methoxy-pyridazin-3-yl)-phenyl]-pyrimidin-4-yl}-amine]
EP2
  IC50: 0.085 µM
EP4; [1]
  IC50: 0.194 µM

## Cc1cc(-c2ccc(-c3cc(NCCn4c(C)cc5c(C)cc(F)cc54)ncn3)cc2)on1 [compound 713]
EP2
  IC50: 0.073 µM
EP4; [1]
  IC50: 0.267 µM

## CCCCOc1cc(-c2cc(NCCn3c(C)cc4c(OC)cccc43)ncn2)ccc1C(=O)O [compound 484]
EP2
  IC50: 0.001 µM
EP4; [1]
  IC50: 0.117 µM

## COc1c(Cl)cc(F)c2c1cc(C)n2CCNc1cc(-c2ccc(C(=O)O)c(CC(C)C)c2)ncn1 [compound 622]
EP2
  IC50: 0.732 µM
EP4; [1]
  IC50: 0.303 µM

## Cc1cc2ccccc2n1CCNc1cc(-c2ccc3c(=O)[nH][nH]c3c2)ncn1 [Example 772, 6-{6-[2-(2-Methyl-indol-1-yl)-ethylamino]-pyrimidin-4-yl}-1,2-dihydro-indazol-3-one]
EP2
  IC50: 0.015 µM
EP4; [1]
  IC50: 0.317 µM

## COc1ccc(F)c2c1cc(C)n2CCNc1cc(-c2ccc(C(=O)O)c(OC3CCC3)c2)ncn1 [compound 472, 2-Cyclobutoxy-4-{6-[2-(7-fluoro-4-methoxy-2-methyl-indol-1-yl)-ethylamino]-pyrimidin-4-yl}-benzoic acid]
EP2
  IC50: 0.005 µM
EP4; [1]
  IC50: 0.066 µM

## COc1ccc(F)c2c1cc(C)n2CCNc1cc(-c2ccc(C(=O)O)c(OC3CCCC3)c2)ncn1 [compound 595, 2-Cyclopentyloxy-4-{6-[2-(7-fluoro-4-methoxy-2-methyl-indol-1-yl)-ethylamino]-pyrimidin-4-yl}-benzoic acid]
EP2
  IC50: 0.01 µM
EP4; [1]
  IC50: 0.073 µM

## CCOc1cc(-c2cc(NCCn3c(C)cc4c(C)cc(F)cc43)ncn2)cc(F)c1-c1nnn[nH]1 [compound 660]
EP2
  IC50: 0.016 µM
EP4; [1]
  IC50: 0.303 µM

## COc1cc(F)cc2c1cc(C)n2CCNc1cc(-c2ccc(-c3ccccn3)cc2)ncn1 [compound 727]
EP2
  IC50: 0.034 µM
EP4; [1]
  IC50: 0.238 µM

## CCCOc1cc(-c2cc(NCCn3c(C)cc4c(C)c(F)cc(F)c43)ncn2)cc(Cl)c1C(=O)O [compound 629]
EP2
  IC50: 0.026 µM
EP4; [1]
  IC50: 0.098 µM

## COc1ccc(F)c2c1cc(C)n2CCNc1cc(-c2ccc3c(=O)[nH][nH]c3c2)ncn1 [Example 773, 6-{6-[2-(7-Fluoro-4-methoxy-2-methyl-indol-1-yl)-ethylamino]-pyrimidin-4-yl}-1,2-dihydro-indazol-3-one]
EP2
  IC50: 0.032 µM
EP4; [1]
  IC50: 0.049 µM

## Cc1ccc(Cl)c2c1cc(C)n2CCNc1cc(-c2ccc(C(=O)O)c(SC(C)C)c2)ncn1 [compound 410]
EP2
  IC50: 0.051 µM
EP4; [1]
  IC50: 0.39 µM

## CCCc1cc(-c2cc(NCCn3c(C)cc4c(OC)ccc(F)c43)ncn2)cc(Cl)c1C(=O)O [compound 514]
EP2
  IC50: 0.005 µM
EP4; [1]
  IC50: 0.056 µM

## COc1cc(F)cc2c1cc(C)n2CCNc1cc(-c2ccc3[nH]c(C(F)(F)F)nc3c2)ncn1 [compound 640]
EP2
  IC50: 0.483 µM
EP4; [1]
  IC50: 0.43 µM

## CNc1nnc(-c2ccc(-c3cc(NCCn4c(C)cc5c(OC)cc(F)cc54)ncn3)cc2)s1 [compound 645]
EP2
  IC50: 0.009 µM
EP4; [1]
  IC50: 0.016 µM

## CCOc1cc(-c2cc(NCCn3c(C)cc4c(OC)cccc43)ncn2)cc(Cl)c1C(=O)O [compound 599]
EP2
  IC50: 0.013 µM
EP4; [1]
  IC50: 0.196 µM

## CCCc1cc(-c2cc(NCCn3c(C)cc4c(C)cc(F)cc43)ncn2)cc(F)c1C(=O)O [compound 415]
EP2
  IC50: 0.053 µM
EP4; [1]
  IC50: 0.153 µM

## Cc1cnoc1-c1ccc(-c2cc(NCCn3c(C)cc4c(C)cc(F)c(F)c43)ncn2)cc1 [compound 719]
EP2
  IC50: 0.223 µM
EP4; [1]
  IC50: 0.389 µM

## CCCc1cc(-c2cc(NCCn3c(C)cc4c(OC)ccc(F)c43)ncn2)cc(OCC)c1C(=O)O [compound 634]
EP2
  IC50: 0.027 µM
EP4; [1]
  IC50: 0.196 µM

## Cc1c(F)cc(F)c2c1cc(C)n2CCNc1cc(-c2ccc(C(=O)O)c(CC(C)C)c2)ncn1 [compound 501]
EP2
  IC50: 0.042 µM
EP4; [1]
  IC50: 0.069 µM

## COc1cc(F)cc2c1cc(C)n2CCNc1cc(-c2ccc(-c3ncnn3C)cc2)ncn1 [Example 753, [2-(6-Fluoro-4-methoxy-2-methyl-indol-1-yl)-ethyl]-{6-[4-(2-methyl-2H-[1,2,4]triazol-3-yl)-phenyl]-pyrimidin-4-yl}-amine]
EP2
  IC50: 0.101 µM
EP4; [1]
  IC50: 0.548 µM

## COc1ccc(F)c2c1cc(C)n2CCNc1cc(-c2ccc(-c3nc(C(=O)O)cs3)cc2)ncn1 [compound 580]
EP2
  IC50: 0.004 µM
EP4; [1]
  IC50: 0.032 µM

## Cc1ccc(F)c2c1cc(C)n2CCNc1cc(-c2ccc(C(=O)O)c(N3CCCC3)c2)ncn1 [compound 464, 4-{6-[2-(7-Fluoro-2,4-dimethyl-indol-1-yl)-ethylamino]-pyrimidin-4-yl}-2-pyrrolidin-1-yl-benzoic acid]
EP2
  IC50: 0.015 µM
EP4; [1]
  IC50: 0.459 µM

## COc1ccc(F)c2c1cc(C)n2CCNc1cc(-c2ccc(C(=O)O)c3c2ccn3C)ncn1 [compound 470]
EP2
  IC50: 0.063 µM
EP4; [1]
  IC50: 0.735 µM

## COc1cc(-c2cc(NCCn3c(C)cc4c(OC)ccc(F)c43)ncn2)cc(Cl)c1C(=O)O [compound 401]
EP2
  IC50: 0.019 µM
EP4; [1]
  IC50: 0.182 µM

## Cc1ccc(F)c2c1cc(C)n2CCNc1cc(-c2ccc(-c3csc(CC(N)=O)n3)cc2)ncn1 [Example 784, 2-[4-(4-{6-[2-(7-Fluoro-2,4-dimethyl-indol-1-yl)-ethylamino]-pyrimidin-4-yl}-phenyl)-thiazol-2-yl]-acetamide]
EP2
  IC50: 0.063 µM
EP4; [1]
  IC50: 0.512 µM

## CCOc1cc(-c2cc(NCCn3c(C)cc4c(OC)c(F)cc(Cl)c43)ncn2)ccc1C(=O)O [compound 486]
EP2
  IC50: 0.091 µM
EP4; [1]
  IC50: 0.325 µM

## CCONC(=O)c1ccc(-c2cc(NCCn3c(C)cc4c(OC)ccc(F)c43)ncn2)cc1OCC [Example 767, 2,N-Diethoxy-4-{6-[2-(7-fluoro-4-methoxy-2-methyl-indol-1-yl)-ethylamino]-pyrimidin-4-yl}-benzamide]
EP2
  IC50: 0.02 µM
EP4; [1]
  IC50: 0.251 µM

## CCCOc1cc(-c2cc(NCCn3c(C)cc4c(OC)cc(F)cc43)ncn2)cc(F)c1C(=O)O [compound 608]
EP2
  IC50: 0.024 µM
EP4; [1]
  IC50: 0.126 µM

## COc1cc(-c2cc(NCCn3c(C)cc4c(C)ccc(F)c43)ncn2)ccc1-c1nnn[nH]1 [Example 748, [2-(7-Fluoro-2,4-dimethyl-indol-1-yl)-ethyl]-{6-[3-methoxy-4-(1H-tetrazol-5-yl)-phenyl]-pyrimidin-4-yl}-amine]
EP2
  IC50: 0.07 µM
EP4; [1]
  IC50: 0.17 µM

## CCOc1cc(-c2cc(NCCn3c(C)cc4c(C)c(F)cc(F)c43)ncn2)ccc1C(=O)O [compound 430]
EP2
  IC50: 0.009 µM
EP4; [1]
  IC50: 0.088 µM

## CCCc1cc(-c2cc(NCCn3c(C)cc4c(OC)cc(F)cc43)ncn2)cc(Cl)c1C(=O)O [compound 519]
EP2
  IC50: 0.005 µM
EP4; [1]
  IC50: 0.034 µM

## Cc1cc(F)c(F)c2c1cc(C)n2CCNc1cc(-c2ccc3c(ccn3C)c2)ncn1 [compound 702]
EP2
  IC50: 0.165 µM
EP4; [1]
  IC50: 0.225 µM
